The assay concerns the target T1, thrombin (Homo sapiens, UniProt P00734).
T1 construct: consists of two polypeptide chains of 36 (light chain) and 259 amino acid
As to the kind of experiment: Thrombin inhibition screen of crude macrocycle reactions (residual thrombin activity, fluorogenic substrate Z-Gly-Gly-Arg-AMC). In kind it is biochemical. To be noted: 10 µM macrocycle concentration; for % thrombin activity, Original screen / % thrombin activity, Repeat screen: macrocycles containing acid 14, crude reaction; for % thrombin activity, Repeat screen: replicate reaction and screen; for percent residual thrombin activity: crude reactions, Library 1a-l, scaffold AA1-AA2-AA3 combined with 1-16 or '-'. The method in brief:
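Each crude macrocycle (10 μM) was preincubated 10 min at room temperature with thrombin (2 nM final) in Tris-Cl pH 7.4 containing NaCl, MgCl2, CaCl2, 0.1% BSA, 0.01% Triton X-100 and 0.6% DMSO. Z-Gly-Gly-Arg-AMC (50 μM final) was then added. Inhibition came from fluorescence slopes relative to DMSO-only controls.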

Numbered stars: 1 amine (or outer) side, 2 acyl side, 3 side chain; on linkers, the order of the positions; unused ones are H or OH. Bridge positions count the residues as written; N and C are the ends. Square brackets hold non-standard residues; d marks the D form. Peptide text beside a SMILES is read from it. * marks the point of attachment. Pyrazinoyl(5-oxo-4H) = O=C(c1c[nH]c(=O)cn1)*; 2Thenoyl(5-Cl) = O=C(c1ccc(Cl)s1)*; Phenoxyacetyl = O=C(COc1ccccc1)*; Cysteamide = C(CS[*:3])N[*:1]; X3 = O=C(Cc1c[nH]c2ccccc12)*; 4Amb = NCc1ccc(C(=O)O)cc1; Orn = NCCC[C@H](N)C(=O)O; Api = NC1(C(=O)O)CCNCC1; Dap = NC[CH](N)C(=O)O; Bz = O=C(c1ccccc1)*; βAla = NCCC(=O)O; Mpa = O=C(O)CCS

Turning to `CC(C)C[C@@H]1NC(=O)c2ccc(cc2)CNC(=O)CCSSCCNC(=O)C2(CCN(C(=O)c3ccc(Cl)s3)CC2)NC1=O` [X B3 L D6], the “% thrombin activity, Original screen” value is listed as 91.2% and the “% thrombin activity, Repeat screen” value was 94.4%.

For `CC(C)[C@@H]1NC(=O)CCSSCCNC(=O)[C@@H]2CCCN2C(=O)[C@H](CCCCNC(=O)c2c[nH]c(=O)cn2)NC1=O` [V-D1-B1/9] ([Mpa]VK(Pyrazinoyl(5-oxo-4H))P-Cysteamide; disulfide 1-C), the “percent residual thrombin activity” value came to 107.119%.

`CC[C@H](C)[C@@H]1NC(=O)[C@H](CCCNC(=O)c2snnc2C)NC(=O)c2cccc(c2)CNC(=O)CCSSCCNC1=O` [B5-D2-I/15]: the “percent residual thrombin activity” value is recorded as 106.982%.

Take `C[C@H]1NC(=O)CCSSCCNC(=O)[C@H](CCCCNC(=O)c2c[nH]c(=O)cn2)NC(=O)CCNC1=O` [a-B2-D1/9]: the “percent residual thrombin activity” value came to 102.459%.

Take `CC(C)[C@@H]1NC(=O)CCSSCCNC(=O)[C@@H]2CCCN2C(=O)[C@H](CCCCNC(=O)Cc2c[nH]c3ccccc23)NC1=O` [V-D1-B1/12] ([Mpa]VK(X3)P-Cysteamide; disulfide 1-C): the “percent residual thrombin activity” value came out at 105.267%.

As to `NC(=O)CC[C@@H]1NC(=O)[C@H](CCCCNC(=O)Cc2c[nH]c3ccccc23)NC(=O)CCSSCCNC(=O)[C@@H]2CCCN2C1=O` [D1-Q-B1/12] ([Mpa]K(X3)QP-Cysteamide; disulfide 1-C), the “percent residual thrombin activity” value is 104.82%.

As to `CC(C)C[C@@H]1NC(=O)CCSSCCNC(=O)[C@H](CCCCNC(=O)c2cnccn2)NC(=O)C2(CC2)CNC1=O` [L-B6-D1/2], the “percent residual thrombin activity” value is 107.636%.

On to `O=C1CCSSCCNC(=O)[C@H]2CCCN(C2)C(=O)[C@H](Cc2c[nH]c3ccccc23)NC(=O)C2(CCN(C(=O)c3ccc(Cl)s3)CC2)N1` [X D6 W B4], for which the “% thrombin activity, Original screen” value was determined as 95.3% and the “% thrombin activity, Repeat screen” value stood at 101.4%.

For `C[C@H]1NC(=O)CCSSCCNC(=O)[C@H](CCCCNC(=O)c2ccccc2)NC(=O)CCNC1=O` [a-B2-D1/1], the “percent residual thrombin activity” value is on record as 107.599%.

Take `NCCCC[C@@H]1NC(=O)[C@@H](Cc2c[nH]c3ccccc23)NC(=O)[C@H]2CCCN(C2)C(=O)CCSSCCNC1=O` [B4-W-D1/-]: the “percent residual thrombin activity” value is given as 98.9418%.

For the compound `COc1ccc(C(=O)NCCCC[C@@H]2NC(=O)[C@H]3CCCN(C3)C(=O)[C@@H](CO)NC(=O)CCSSCCNC2=O)cn1` [s-B4-D1/10], the “percent residual thrombin activity” value came out at 109.656%.

As for `NC(=O)CC[C@@H]1NC(=O)CCSSCCNC(=O)[C@H]2CCCN(C2)C(=O)[C@H](CCCCNC(=O)COc2ccccc2)NC1=O` [Q-D1-B4/13], the “percent residual thrombin activity” value amounted to 120.491%.

With `CC(C)CC(=O)NCCCC[C@@H]1NC(=O)[C@H](Cc2ccccc2)NC(=O)CCSSCCNC(=O)[C@H]2CCCN(C2)C1=O` [F-D1-B4/8], the “percent residual thrombin activity” value was 108.059%.

For `O=C1CNC(=O)[C@H](Cc2ccc(O)cc2)NC(=O)[C@@H]2CCCN2C(=O)[C@@H](NC(=O)c2ccc(Cl)s2)CSSCCN1` [C B1 Y G] ({2Thenoyl(5-Cl)}-CPYG-Cysteamide; disulfide 1-C), the “% thrombin activity, Original screen” value was determined as 98.5% and the “% thrombin activity, Repeat screen” value was 102.3%.

On to `CC(C)C1NC(=O)C2CCCN2C(=O)C(CNC(=O)c2ccc(Cl)s2)NC(=O)CCSSCCNC1=O` (stereo not drawn) [X D3 B1 v] ([Mpa][Dap](2Thenoyl(5-Cl))PV-Cysteamide; disulfide 1-C; configuration not given here), for which the “% thrombin activity, Original screen” value turned out to be 92.1% and the “% thrombin activity, Repeat screen” value stood at 95.4%. Besides, under “listed as X D3 B1 V”, the “% thrombin activity, Original screen” value stood at 98.0% and the “% thrombin activity, Repeat screen” value is 99.7%.

For `O=C1CCSSCCNC(=O)[C@H](CCCCNC(=O)c2c[nH]c(=O)[nH]c2=O)NC(=O)[C@H]2CCCN(C2)C(=O)[C@@H](CO)N1` [s-B4-D1/11], the “percent residual thrombin activity” value came to 112.975%.

Take `COc1ccc(C(=O)NCCCC[C@@H]2NC(=O)[C@@H](C)NC(=O)CCSSCCNC(=O)c3cccc(c3)CNC2=O)cn1` [a-D1-B5/10]: the “percent residual thrombin activity” value came out at 109.062%.

Regarding `CC(C)[C@@H]1NC(=O)CCSSCCNC(=O)[C@@H]2CCCN2C(=O)[C@H](CCCCNC(=O)c2c[nH]c(=O)cn2)NC1=O` [v-D1-B1/9] ([Mpa]VK(Pyrazinoyl(5-oxo-4H))P-Cysteamide; disulfide 1-C), the “percent residual thrombin activity” value is 99.656%.

In the case of `NCCC[C@@H]1NC(=O)CCSSCCNC(=O)c2ccc(cc2)CNC(=O)[C@H](Cc2c[nH]c3ccccc23)NC1=O` [D2-W-B3/-] ([Mpa][Orn]W[4Amb]-Cysteamide; disulfide 1-C), the “percent residual thrombin activity” value stood at 110.008%.

As to `O=C(COc1ccccc1)NCCCC[C@@H]1NC(=O)[C@@H](Cc2c[nH]c3ccccc23)NC(=O)[C@H]2CCCN(C2)C(=O)CCSSCCNC1=O` [B4-W-D1/13], the “percent residual thrombin activity” value is recorded as 97.6967%.

For `CC(C)[C@H]1NC(=O)[C@H](CCCCNC(=O)COc2ccccc2)NC(=O)[C@@H]2CCCN2C(=O)CCSSCCNC1=O` [B1-D1-v/13] ([Mpa]PK(Phenoxyacetyl)[dV]-Cysteamide; disulfide 1-C), the “percent residual thrombin activity” value is given as 123.844%.

On to `CC(C)CC(=O)NCCCC[C@@H]1NC(=O)[C@@H](Cc2c[nH]c3ccccc23)NC(=O)[C@H]2CCCN(C2)C(=O)CCSSCCNC1=O` [B4-w-D1/8], for which the “percent residual thrombin activity” value stood at 116.689%.

For the compound `O=C1CCSSCCNC(=O)[C@H](Cc2c[nH]c3ccccc23)NC(=O)c2ccc(cc2)CNC(=O)[C@H](CNC(=O)c2ccc(Cl)s2)N1` [X D3 B3 W], the “% thrombin activity, Original screen” value is recorded as 68.7% and the “% thrombin activity, Repeat screen” value is 73.3%.

Regarding `O=C1CCSSCCNC(=O)[C@@H](Cc2ccccc2)NC(=O)[C@H]2CCCN(C2)C(=O)[C@H](CCCNC(=O)c2c[nH]c(=O)cn2)N1` [D2-B4-f/9], the “percent residual thrombin activity” value is on record as 109.579%.

With `C[C@H]1NC(=O)CCSSCCNC(=O)[C@H](CCCCNC(=O)c2ccc(Cl)s2)NC(=O)CCNC1=O` [X a B2 D1], the “% thrombin activity, Original screen” value was determined as 95.2% and the “% thrombin activity, Repeat screen” value worked out at 101.4%.

`O=C1CCSSCCNC(=O)C2(CCN(C(=O)c3ccc(Cl)s3)CC2)NC(=O)[C@@H]2CCCN2C(=O)[C@H](Cc2c[nH]c3ccccc23)N1` [X W B1 D6] ([Mpa]WP[Api](2Thenoyl(5-Cl))-Cysteamide; disulfide 1-C): the “% thrombin activity, Original screen” value is given as 105.0% and the “% thrombin activity, Repeat screen” value stood at 113.7%.

Take `O=C1CCSSCCNC(=O)[C@H](CCCNC(=O)c2ccccc2)NC(=O)c2ccc(cc2)CNC(=O)[C@H](CO)N1` [S-B3-D2/1]: the “percent residual thrombin activity” value is 105.629%.

Regarding `O=C1CCSSCCNC(=O)[C@H](CCCCNC(=O)COc2ccccc2)NC(=O)[C@H](Cc2ccc(O)cc2)NC(=O)C2(CC2)CN1` [B6-Y-D1/13], the “percent residual thrombin activity” value came out at 106.992%.

With `O=C1CCSSCCNC(=O)C(Cc2c[nH]c3ccccc23)NC(=O)C2CC(NC(=O)c3ccc(Cl)s3)CN2C(=O)CCN1` (stereo not drawn) [X B2 D5 w], the “% thrombin activity, Original screen” value is reported as 95.8% and the “% thrombin activity, Repeat screen” value was found to be 101.8%.

As for `CC[C@H](C)[C@@H]1NC(=O)[C@H](CCCNC(=O)c2ccccc2)NC(=O)CCSSCCNC(=O)CCNC1=O` [D2-I-B2/1] ([Mpa][Orn](Bz)I[βAla]-Cysteamide; disulfide 1-C), the “percent residual thrombin activity” value amounted to 109.798%.

As for `CC(C)C[C@@H]1NC(=O)CCSSCCNC(=O)c2cccc(c2)CNC(=O)[C@H](CCCNC(=O)c2ccc(Cl)s2)NC1=O` [X L D2 B5], the “% thrombin activity, Original screen” value was found to be 100.1% and the “% thrombin activity, Repeat screen” value worked out at 95.2%.

In the case of `NC(=O)CC[C@@H]1NC(=O)[C@H](CCCCNC(=O)c2c[nH]c(=O)[nH]c2=O)NC(=O)C2(CC2)CNC(=O)CCSSCCNC1=O` [B6-D1-Q/11], the “percent residual thrombin activity” value is 105.488%.

For `O=C(NCCCC[C@@H]1NC(=O)[C@@H](Cc2c[nH]c3ccccc23)NC(=O)[C@H]2CCCN(C2)C(=O)CCSSCCNC1=O)c1c[nH]c(=O)cn1` [B4-W-D1/9], the “percent residual thrombin activity” value is 96.1174%.

As for `CC1NC(=O)CCSSCCNC(=O)C(CCCCNC(=O)c2ccccc2)NC(=O)C2CCCN2C1=O` (stereo not drawn) [a-B1-D1/1] ([Mpa]APK(Bz)-Cysteamide; disulfide 1-C; configuration not given here), the “percent residual thrombin activity” value is reported as 107.016%.

As for `CC(C)C[C@@H]1NC(=O)[C@H](CCCNC(=O)c2ccc(Cl)s2)NC(=O)CCSSCCNC(=O)[C@H]2CCCN(C2)C1=O` [X D2 L B4], the “% thrombin activity, Original screen” value was determined as 98.3% and the “% thrombin activity, Repeat screen” value is 94.7%.

As to `O=C1CCSSCCNC(=O)[C@H](CNC(=O)c2ccc(Cl)s2)NC(=O)C2(CC2)CNC(=O)[C@H](Cc2c[nH]c3ccccc23)N1` [X W B6 D3], the “% thrombin activity, Original screen” value turned out to be 65.4% and the “% thrombin activity, Repeat screen” value is 56.1%.

For the compound `C[C@H]1NC(=O)[C@H](CCCNC(=O)c2ccc(Cl)s2)NC(=O)CCSSCCNC(=O)CCNC1=O` [X D2 a B2], the “% thrombin activity, Original screen” value worked out at 108.5% and the “% thrombin activity, Repeat screen” value is 109.5%.

For the compound `CC[C@H](C)[C@@H]1NC(=O)[C@H](CCCNC(=O)c2c[nH]c(=O)[nH]c2=O)NC(=O)c2cccc(c2)CNC(=O)CCSSCCNC1=O` [B5-D2-I/11], the “percent residual thrombin activity” value was 108.374%.

Regarding `CC[C@H](C)[C@@H]1NC(=O)CCSSCCNC(=O)[C@H](CCCCNC(=O)c2c[nH]c(=O)[nH]c2=O)NC(=O)c2cccc(c2)CNC1=O` [I-B5-D1/11], the “percent residual thrombin activity” value turned out to be 106.327%.

Turning to `COc1ccc(C(=O)NCCC[C@@H]2NC(=O)[C@H](CC(C)C)NC(=O)CCNC(=O)CCSSCCNC2=O)cn1` [B2-L-D2/10], the “percent residual thrombin activity” value was 110.801%.

The values above are taken from PMC9250534, “Synthesis and direct assay of large macrocycle diversities by combinatorial late-stage modification at picomole scale” (Nature Communications, 2022).
